As usually defined, the inhibition is the share of the control response that was lost under treatment.

Each structure is given as a SMILES string.

T1 sequence (P08581 974-1390 limits assumed): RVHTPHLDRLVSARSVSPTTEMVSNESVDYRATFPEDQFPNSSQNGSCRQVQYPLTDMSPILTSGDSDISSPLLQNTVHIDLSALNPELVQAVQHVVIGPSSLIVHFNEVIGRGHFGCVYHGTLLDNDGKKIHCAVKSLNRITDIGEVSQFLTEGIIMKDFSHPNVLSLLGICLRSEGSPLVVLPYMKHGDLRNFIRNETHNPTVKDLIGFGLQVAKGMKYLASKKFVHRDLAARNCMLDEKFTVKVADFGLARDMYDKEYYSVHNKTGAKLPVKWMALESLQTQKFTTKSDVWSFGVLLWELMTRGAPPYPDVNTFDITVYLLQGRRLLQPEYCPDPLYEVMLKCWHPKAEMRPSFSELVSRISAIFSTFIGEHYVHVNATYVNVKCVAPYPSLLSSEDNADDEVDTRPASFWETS

This assay has as its target T1, HGFR (Homo sapiens, UniProt P08581).
T1 construct: purchased Upstate 14-526
As to the kind of experiment: HGFR continuous-coupled spectrophotometric assay. The format is biochemical. To be noted: at 50 nM; Table 5, library procedure 40; read-out: % inhibition (percent c-MET inhibition).
`CCN(CCO)C(=O)c1ccc(-c2cnc(N)c(OC(C)c3c(Cl)ccc(F)c3Cl)c2)cc1` [Example L-62]: the inhibition at 0.05 µM amounted to 94%.

On to `CC(Oc1cc(-c2ccc(C(=O)NCCN(C)C)cc2)cnc1N)c1c(Cl)ccc(F)c1Cl` [Example L-64], for which the inhibition at 0.05 µM was 85%.

Take `CCN1CC(NC(=O)c2ccc(-c3cnc(N)c(OC(C)c4c(Cl)ccc(F)c4Cl)c3)cc2)CN1CC` [Example L-65]: the inhibition at 0.05 µM came out at 79%.

As to `CCCNC(=O)c1ccc(-c2cnc(N)c(OC(C)c3c(Cl)ccc(F)c3Cl)c2)cc1` [Example L-66], the inhibition at 0.05 µM worked out at 73%.

On to `CC(C)CCNC(=O)c1ccc(-c2cnc(N)c(OC(C)c3c(Cl)ccc(F)c3Cl)c2)cc1` [Example L-67], for which the inhibition at 0.05 µM amounted to 53%.

On to `CCOC(=O)CN1CCN(C(=O)c2ccc(-c3cnc(N)c(OC(C)c4c(Cl)ccc(F)c4Cl)c3)cc2)CC1` [Example L-68], for which the inhibition at 0.05 µM is 70%.

For the compound `CC(Oc1cc(-c2ccc(C(=O)NCCc3c[nH]c4ccc(O)cc34)cc2)cnc1N)c1c(Cl)ccc(F)c1Cl` [Example L-69], the inhibition at 0.05 µM was 66%.

For `CC(Oc1cc(-c2ccc(C(=O)NC3CCC3)cc2)cnc1N)c1c(Cl)ccc(F)c1Cl` [Example L-70], the inhibition at 0.05 µM worked out at 71%.

Consider `CC(Oc1cc(-c2ccc(C(=O)N(C)C3CCN(C)C3)cc2)cnc1N)c1c(Cl)ccc(F)c1Cl` [Example L-71], for which the inhibition at 0.05 µM was found to be 92%.

On to `CC(Oc1cc(-c2ccc(C(=O)NCC(C)(C)C)cc2)cnc1N)c1c(Cl)ccc(F)c1Cl` [Example L-72], for which the inhibition at 0.05 µM worked out at 62%.

Regarding `CC(Oc1cc(-c2ccc(C(=O)N3CCCCC3CN3CCCCC3)cc2)cnc1N)c1c(Cl)ccc(F)c1Cl` [Example L-73], the inhibition at 0.05 µM was 90%.

Turning to `C[C@H](Oc1cc(-c2ccc(C(=O)NC3C[C@@H]3c3ccccc3)cc2)cnc1N)c1c(Cl)ccc(F)c1Cl` (stereo partly drawn) [Example L-74], the inhibition at 0.05 µM turned out to be 65%.

In the case of `CC(Oc1cc(-c2ccc(C(=O)NCCc3c(Cl)cccc3Cl)cc2)cnc1N)c1c(Cl)ccc(F)c1Cl` [Example L-75], the inhibition at 0.05 µM turned out to be 53%.

Consider `CC(Oc1cc(-c2ccc(C(=O)N(C)CCc3ccncc3)cc2)cnc1N)c1c(Cl)ccc(F)c1Cl` [Example L-76], for which the inhibition at 0.05 µM was determined as 73%.

On to `CC(Oc1cc(-c2ccc(C(=O)NCc3ccc(OC(F)(F)F)cc3)cc2)cnc1N)c1c(Cl)ccc(F)c1Cl` [Example L-77], for which the inhibition at 0.05 µM turned out to be 54%.

As for `CC(Oc1cc(-c2ccc(C(=O)N(C)CCC#N)cc2)cnc1N)c1c(Cl)ccc(F)c1Cl` [Example L-78], the inhibition at 0.05 µM turned out to be 68%.

For `COCCNC(=O)c1ccc(-c2cnc(N)c(OC(C)c3c(Cl)ccc(F)c3Cl)c2)cc1` [Example L-79], the inhibition at 0.05 µM worked out at 73%.

In the case of `C[C@H](Oc1cc(-c2ccc(C(=O)N[C@@H](C)C3CCCCC3)cc2)cnc1N)c1c(Cl)ccc(F)c1Cl` [Example L-80], the inhibition at 0.05 µM is 60%.

In the case of `CC(Oc1cc(-c2ccc(C(=O)NC3(CO)CCCC3)cc2)cnc1N)c1c(Cl)ccc(F)c1Cl` [Example L-81], the inhibition at 0.05 µM amounted to 67%.

On to `CC(C)[C@@H](CO)NC(=O)c1ccc(-c2cnc(N)c(O[C@@H](C)c3c(Cl)ccc(F)c3Cl)c2)cc1` [Example L-82], for which the inhibition at 0.05 µM was 74%.

For the compound `C[C@H](Oc1cc(-c2ccc(C(=O)N[C@H](C)C3CCCCC3)cc2)cnc1N)c1c(Cl)ccc(F)c1Cl` [Example L-83], the inhibition at 0.05 µM was determined as 54%.

Consider `C[C@H](Oc1cc(-c2ccc(C(=O)NC[C@@H]3CCCC[C@H]3O)cc2)cnc1N)c1c(Cl)ccc(F)c1Cl` [Example L-84], for which the inhibition at 0.05 µM is 67%.

Consider `CCOC(=O)C1CCN(C(=O)c2ccc(-c3cnc(N)c(OC(C)c4c(Cl)ccc(F)c4Cl)c3)cc2)CC1` [Example L-86], for which the inhibition at 0.05 µM came to 57%.

Turning to `CC(Oc1cc(-c2ccc(C(=O)NC3CCCCC3)cc2)cnc1N)c1c(Cl)ccc(F)c1Cl` [Example L-87], the inhibition at 0.05 µM was determined as 56%.

In the case of `CC(Oc1cc(-c2ccc(C(=O)NCCCN3CCCC3)cc2)cnc1N)c1c(Cl)ccc(F)c1Cl` [Example L-88], the inhibition at 0.05 µM is 90%.

`CC(Oc1cc(-c2ccc(C(=O)N3CCN(c4ccncc4)CC3)cc2)cnc1N)c1c(Cl)ccc(F)c1Cl` [Example L-89]: the inhibition at 0.05 µM amounted to 96%.

In the case of `CC(Oc1cc(-c2ccc(C(=O)N3CCN(CCN(C)C)CC3)cc2)cnc1N)c1c(Cl)ccc(F)c1Cl` [Example L-90], the inhibition at 0.05 µM came to 85%.

In the case of `C[C@H](Oc1cc(-c2ccc(C(=O)NC[C@H](O)c3ccccc3)cc2)cnc1N)c1c(Cl)ccc(F)c1Cl` [Example L-91], the inhibition at 0.05 µM stood at 69%.

As to `COc1cc(CCNC(=O)c2ccc(-c3cnc(N)c(OC(C)c4c(Cl)ccc(F)c4Cl)c3)cc2)ccc1O` [Example L-92], the inhibition at 0.05 µM worked out at 64%.

With `CC(NC(=O)c1ccc(-c2cnc(N)c(OC(C)c3c(Cl)ccc(F)c3Cl)c2)cc1)c1ccc(O)cc1` [Example L-93], the inhibition at 0.05 µM was 62%.

In the case of `CC(Oc1cc(-c2ccc(C(=O)NCCc3cccc(C(F)(F)F)c3)cc2)cnc1N)c1c(Cl)ccc(F)c1Cl` [Example L-94], the inhibition at 0.05 µM came to 51%.

As for `CC(Oc1cc(-c2ccc(C(=O)NC[C@@H]3CCCO3)cc2)cnc1N)c1c(Cl)ccc(F)c1Cl` (stereo partly drawn) [Example L-96], the inhibition at 0.05 µM amounted to 61%.

Consider `C[C@H](Oc1cc(-c2ccc(C(=O)NC[C@H]3CCCO3)cc2)cnc1N)c1c(Cl)ccc(F)c1Cl` [Example L-97], for which the inhibition at 0.05 µM was determined as 60%.

For `CC(Oc1cc(-c2ccc(C(=O)N(C)CC#N)cc2)cnc1N)c1c(Cl)ccc(F)c1Cl` [Example L-99], the inhibition at 0.05 µM stood at 83%.

Take `C[C@H](Oc1cc(-c2ccc(C(=O)NC[C@@H](C)O)cc2)cnc1N)c1c(Cl)ccc(F)c1Cl` [Example L-101]: the inhibition at 0.05 µM was found to be 79%.

`CNC(=O)c1ccc(-c2cnc(N)c(OC(C)c3c(Cl)ccc(F)c3Cl)c2)cc1` [Example L-102]: the inhibition at 0.05 µM stood at 82%.

As for `CC(Oc1cc(-c2ccc(C(=O)N3CCOCC3)cc2)cnc1N)c1c(Cl)ccc(F)c1Cl` [Example L-103], the inhibition at 0.05 µM is 91%.

Regarding `CC(Oc1cc(-c2ccc(C(=O)N(C)CCO)cc2)cnc1N)c1c(Cl)ccc(F)c1Cl` [Example L-104], the inhibition at 0.05 µM turned out to be 89%.

Consider `CC(Oc1cc(-c2ccc(C(=O)NCCO)cc2)cnc1N)c1c(Cl)ccc(F)c1Cl` [Example L-106], for which the inhibition at 0.05 µM came to 89%.

With `CC(=O)N[C@@H]1CCN(C(=O)c2ccc(-c3cnc(N)c(OC(C)c4c(Cl)ccc(F)c4Cl)c3)cc2)C1` (stereo partly drawn) [Example L-107], the inhibition at 0.05 µM is 87%.

For `CCOCCCNC(=O)c1ccc(-c2cnc(N)c(OC(C)c3c(Cl)ccc(F)c3Cl)c2)cc1` [Example L-108], the inhibition at 0.05 µM worked out at 70%.

Consider `CC(Oc1cc(-c2ccc(C(=O)NCCC#N)cc2)cnc1N)c1c(Cl)ccc(F)c1Cl` [Example L-109], for which the inhibition at 0.05 µM was 76%.

`CC(C)NC(=O)c1ccc(-c2cnc(N)c(OC(C)c3c(Cl)ccc(F)c3Cl)c2)cc1` [Example L-110]: the inhibition at 0.05 µM is 71%.

Consider `CC(Oc1cc(-c2ccc(C(=O)NCCc3ccncc3)cc2)cnc1N)c1c(Cl)ccc(F)c1Cl` [Example L-111], for which the inhibition at 0.05 µM is 71%.

For the compound `CC(Oc1cc(-c2ccc(C(=O)N(C)CCN(C)C)cc2)cnc1N)c1c(Cl)ccc(F)c1Cl` [Example L-112], the inhibition at 0.05 µM worked out at 85%.

The values above are taken from patent publication US20050009840A1 (SUGEN, INC., priority 2003, published 2005).
